# Assay results reported in PubChem BioAssay (NCI).
# Several values for one entry are separate records, joined by “and”; a condition that tells them apart may be missing. Equal values may be shown once.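 96-well plates; 48 h exposure; 5 concentrations. Endpoints by linear interpolation between flanking doses. Not reached: highest tested concentration assigned. The concentration for 50% growth inhibition is given as GI50. At the TGI there is no net growth.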
# What was measured:
# Test in all cases: NCI-60 cell line screen, 48 h
# [1] = system: MOLT-4 leukemia
# [2] = system: LOX IMVI melanoma
# [3] = system: SF-539 CNS
# [4] = system: RXF 393 renal
# [5] = system: EKVX NSCLC
# [6] = system: SNB-19 CNS
# [7] = system: HCT-15 colon
# [8] = system: ACHN renal
# [9] = system: HL-60(TB) leukemia
SMILES,TGI [1],TGI [2],TGI [3],TGI [4],TGI [5],TGI [6],TGI [7],TGI [8],TGI [9],GI50 [2],GI50 [3],GI50 [4],GI50 [5],GI50 [9],GI50 [8],GI50 [1],GI50 [6],GI50 [7]
NC1CC=C(COC(=O)C(O)(c2ccccc2)C2CC2)CC1 (stereo unspecified),> 100 µM,> 100 µM,> 100 µM,> 100 µM,> 100 µM,> 100 µM,> 100 µM,> 100 µM,–,–,–,–,–,–,–,–,–,–
Cc1ccc(N=C2C(=Nc3ccc(C)cc3)N(c3ccc(C)cc3)C(=S)N2C(=O)c2ccccc2)cc1,> 100 µM,–,> 100 µM,> 100 µM,> 100 µM,> 100 µM,> 100 µM,> 100 µM,–,–,–,–,–,–,–,–,–,–
C=CCC(C(=O)Nc1cccc2[nH]cnc12)C(=O)OCC (stereo unspecified),> 100 µM,> 100 µM,> 100 µM,–,> 100 µM,> 100 µM,> 100 µM,> 100 µM,> 100 µM,–,–,–,–,–,–,–,–,–
O=c1ccc2nc(-c3ccccn3)nn(-c3ccccc3)c-2c1,–,3.44 µM,19.8 µM,3.01 µM,20 µM,–,–,2.99 µM,3.11 µM,1.78 µM,6.93 µM,1.6 µM,6.25 µM,0.64 µM,1.59 µM,–,–,–
CCOC(=O)c1c(-c2cccc3ccccc23)c(C#N)c(=S)n(C2OC(COC(C)=O)C(OC(C)=O)C(OC(C)=O)C2OC(C)=O)c1C (stereo unspecified),> 100 µM,> 100 µM,> 100 µM,> 100 µM,–,> 100 µM,> 100 µM,> 100 µM,> 100 µM,–,–,–,–,–,–,–,–,–
O=c1[nH]c(=S)c2cc3c(=S)[nH]c(=O)n(CCO)c3nc2n1CCO,> 100 µM,> 100 µM,> 100 µM,> 100 µM,> 100 µM,> 100 µM,> 100 µM,> 100 µM,–,–,–,–,–,–,–,–,–,–
COc1ccc(-c2nn(-c3ccc(NC(=O)Nc4ccc(Cl)c(C(F)(F)F)c4)cc3)cc2-c2ccncc2)cc1Cl,6.75 µM,–,4 µM,2.19 µM,14.4 µM,11 µM,3.03 µM,5.27 µM,5.75 µM,–,1.53 µM,0.74 µM,1.83 µM,2.13 µM,1.6 µM,1.7 µM,2.35 µM,1.12 µM
C[N+](C)(CCNC(=O)c1cccc2cc3ccccc3nc12)Cc1ccc([N+](=O)[O-])s1,> 25 µM,> 25 µM,–,> 25 µM,> 25 µM,–,> 25 µM,> 25 µM,> 25 µM,–,–,–,–,–,–,–,–,–
Cc1ccc(-n2cc([Si](C)(C)C)nn2)s1,–,> 100 µM,> 100 µM,–,–,> 100 µM,> 100 µM,> 100 µM,–,–,–,–,–,–,–,–,–,–
N#CC(C#N)=C1C(=O)NC(N)=C1C#N,> 100 µM,> 100 µM,–,> 100 µM,> 100 µM,> 100 µM,> 100 µM,> 100 µM,> 100 µM,–,–,–,–,–,–,–,–,–
CCOc1ccc2c(c1)c(=O)c1c(NCCN(CC)CC)ccc3nnn2c31,> 59.9 µM,32 µM,24.1 µM,25.5 µM,> 100 µM,> 100 µM,48.2 µM,> 56.1 µM,–,–,–,–,–,–,–,–,–,–
C=C(c1ccccc1)c1ccccc1-c1cc(-c2ccccc2)cc(-c2ccccc2)n1,> 100 µM,> 100 µM,> 100 µM,> 100 µM,> 100 µM,> 100 µM,> 100 µM,> 100 µM,> 100 µM,–,–,–,–,–,–,–,–,–
Cc1cn(S(=O)(=O)c2ccccc2)c2c(OCc3ccccc3)cc(NS(C)(=O)=O)cc12,> 24.8 µM,> 100 µM,> 100 µM,> 100 µM,> 44.6 µM,> 100 µM,> 100 µM,> 100 µM,> 20.6 µM,–,–,–,–,–,–,–,–,–
COc1ccc(C2=NN=C3C(c4ccccc4)=Nc4ccccc4N3C2)cc1,33.4 µM,> 100 µM,> 100 µM,51.8 µM,> 100 µM,> 100 µM,> 100 µM,> 100 µM,38.5 µM,–,–,–,–,–,–,–,–,–
O=C(O)C(=O)/C=C(\O)c1ccc(Br)cc1,> 100 µM,> 100 µM,–,> 100 µM,82.1 µM,> 100 µM,> 100 µM,> 100 µM,> 100 µM,–,–,–,–,–,–,–,–,–
OC(CC(O)(C(F)(F)F)C(F)(F)F)c1ccc(C(O)CC(O)(C(F)(F)F)C(F)(F)F)cc1 (stereo unspecified),35.8 µM,30.7 µM,29.4 µM,30.7 µM,28 µM,30.9 µM,42.8 µM,27.6 µM,37.4 µM,–,–,–,–,–,–,–,–,–
CCC[C@@H]1C(=O)N=C(N)N1C(=O)OCc1ccccc1,> 100 µM,> 100 µM,–,> 100 µM,> 100 µM,> 100 µM,> 100 µM,> 100 µM,> 100 µM,–,–,–,–,–,–,–,–,–
COC(=O)C1=C(C(=O)OC)SC2(S1)C(C(=O)OC)=C(C(=O)OC)Sc1c2ssc1=NC(C)(C)C,2.16 µM,2.4 µM,2.69 µM,1.96 µM,3.36 µM,9.77 µM,2.19 µM,3.35 µM,4.73 µM,–,–,–,–,–,–,–,–,–
C=CCn1c(-c2ccc([N+](=O)[O-])cc2)csc1=N,–,70.5 µM,–,54.4 µM,> 100 µM,> 100 µM,> 100 µM,> 100 µM,45.2 µM,–,–,–,–,–,–,–,–,–
CN1CCN(C2=CC(=O)c3c(O)ccc(O)c3C2=O)CC1,4.75 µM,1.79 µM,2.96 µM,2.93 µM,3.26 µM,3.05 µM,–,2.88 µM,0.785 µM,–,–,–,–,–,–,–,–,–
COC(=O)c1c(O)ccc2c1c1c(n2Cc2ccccc2)C(=O)c2ccccc2C1,37.6 µM,69.5 µM,> 100 µM,60 µM,–,> 100 µM,> 100 µM,–,> 100 µM,–,–,–,–,–,–,–,–,–
C=C(C(=O)O[C@H]1C(=O)C2=C(C)CCC3C(=C)C(=O)O[C@@H]3C2[C@]1(C)O)C1CC[C@]2(C)CCCC(=C)[C@H]2C1 (stereo partly specified),5.38 µM,11.5 µM and 15.7 µM,16.5 µM and 10.3 µM,2.52 µM and 3.65 µM,17.8 µM and 22.7 µM,26.6 µM,8.77 µM and 12.8 µM,11 µM and 8.85 µM,4.35 µM,5.26 µM,7.16 µM,1.79 µM,–,–,5.19 µM,–,–,1.92 µM
CCOC(=O)/C=C(\C(=O)OCC)n1ccc(=O)[nH]c1=O,12.4 µM,28.7 µM,75.1 µM,24.6 µM,34.9 µM,> 100 µM,21.5 µM,23.6 µM,6.2 µM,–,–,–,–,–,–,–,–,–
